Laboratory results: the supplement of paper PMC10307832

How the values were obtained:
Assay in all cases: relative viability (nuclei count vs DMSO), 5 days (fraction); higher = more cells survive
[1] = compound: C1=CC2=C(C=C(C(=C2N=C1)O)N=NC3=CC4=C(C=C3)C=C(C=C4)S(=O)(=O)O)S(=O)(=O)O + NC(=O)Nc1cc(-c2cccc(F)c2)sc1C(=O)N[C@H]1CCCNC1 [AZD7762] (partner 0.2 µM)
How it was run: (§1)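 Lung cancer cell lines were seeded in 1536-well plates and dosed by pin tool the next day, with either a single drug or a fixed anchor-drug dose combined with five library-drug doses (not always all listed) spaced in √10 steps. Five days later, one step fixed the cells and stained their nuclei (final 0.05% Triton X-100, 1% formaldehyde, 1 ug/ml Hoechst), and nuclei were counted on 4× images. Relative viability is the nuclei count in treated wells divided by the count in vehicle wells, and each value is the median of duplicate plates.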

[2] = compound: C1=CC2=C(C=C(C(=C2N=C1)O)N=NC3=CC4=C(C=C3)C=C(C=C4)S(=O)(=O)O)S(=O)(=O)O + CC(=O)c1c(C)c2cnc(Nc3ccc(N4CCNCC4)cn3)nc2n(C2CCCC2)c1=O [Palbociclib] (partner 0.5 µM)
How it was run: as §1

AT-7519 + Decitabine = compound: O=C(NC1CCNCC1)c1n[nH]cc1NC(=O)c1c(Cl)cccc1Cl [AT-7519] + Nc1ncn([C@H]2C[C@H](O)[C@@H](CO)O2)c(=O)n1 [Decitabine] (partner 2 µM)
How it was run: as §1

AT-7519 + Crizotinib = compound: O=C(NC1CCNCC1)c1n[nH]cc1NC(=O)c1c(Cl)cccc1Cl [AT-7519] + C[C@@H](Oc1cc(-c2cnn(C3CCNCC3)c2)cnc1N)c1c(Cl)ccc(F)c1Cl [Crizotinib] (partner 1 µM)
How it was run: as §1

Cell Line | relative viability ([1]; first compound 0.08 µM) | relative viability ([1]; first compound 0.253 µM) | relative viability ([1]; first compound 0.8 µM) | relative viability ([1]; first compound 2.53 µM) | relative viability ([1]; first compound 8 µM) | relative viability ([2]; first compound 0.08 µM) | relative viability ([2]; first compound 0.253 µM) | relative viability ([2]; first compound 0.8 µM) | relative viability ([2]; first compound 2.53 µM) | relative viability ([2]; first compound 8 µM) | relative viability (AT-7519 + Decitabine; first compound 0.01 µM) | relative viability (AT-7519 + Decitabine; first compound 0.03162 µM) | relative viability (AT-7519 + Decitabine; first compound 0.3162 µM) | relative viability (AT-7519 + Decitabine; first compound 1 µM) | relative viability (AT-7519 + Crizotinib; first compound 0.01 µM) | relative viability (AT-7519 + Crizotinib; first compound 0.03162 µM) | relative viability (AT-7519 + Crizotinib; first compound 0.3162 µM) | relative viability (AT-7519 + Crizotinib; first compound 1 µM)
NCI-H2342 | 0.603 | 0.541 | 0.463 | 0.462 | 0.582 | 0.576 | 0.538 | 0.532 | 0.6 | 0.542 | 0.709 | 0.61 | 0.701 | 0.631 | – | – | – | –
HCC-15 | 1.32 | 1.25 | 1.23 | 1.18 | 1.15 | 0.759 | 0.658 | 0.737 | 0.67 | 0.723 | 0.59 | 0.567 | 0.498 | 0.441 | 0.864 | 0.718 | 0.741 | 0.502
A-427 | 0.823 | 0.816 | 0.767 | 0.822 | 0.743 | 0.525 | 0.547 | 0.512 | 0.541 | 0.482 | 0.539 | 0.508 | 0.604 | 0.53 | 0.931 | 0.823 | 0.964 | 0.576
NCI-H2228 | – | – | – | – | – | 0.81 | 0.726 | 0.79 | 0.822 | 0.92 | – | – | – | – | 0.549 | 0.379 | 0.403 | 0.313
NCI-H1734 | 0.633 | 0.558 | 0.566 | 0.527 | 0.566 | 0.367 | 0.323 | 0.344 | 0.375 | 0.329 | 0.46 | 0.463 | 0.486 | 0.351 | 0.662 | 0.724 | 0.544 | 0.305
PC-14 | 0.353 | 0.294 | 0.305 | 0.375 | 0.328 | 0.653 | 0.52 | 0.548 | 0.597 | 0.474 | 0.264 | 0.205 | 0.189 | 0.0859 | 0.755 | 0.911 | 0.818 | 0.811
NCI-H1915 | 0.735 | 0.706 | 0.661 | 0.688 | 0.679 | 0.415 | 0.523 | 0.488 | 0.545 | 0.494 | 0.25 | 0.248 | 0.288 | 0.235 | 0.933 | 0.926 | 0.793 | 0.741
NCI-H1666 | 0.868 | 0.798 | 0.787 | 0.802 | 0.771 | 0.667 | 0.704 | 0.626 | 0.668 | 0.645 | 0.819 | 0.725 | 0.774 | 0.673 | 0.902 | 0.972 | 0.726 | 0.604
HCC-366 | 0.291 | 0.273 | 0.26 | 0.272 | 0.291 | 0.459 | 0.385 | 0.377 | 0.391 | 0.325 | 0.324 | 0.31 | 0.336 | 0.215 | 0.463 | 0.668 | 0.457 | 0.179
SK-MES-1 | – | – | – | – | – | 0.351 | 0.332 | 0.34 | 0.318 | 0.342 | 0.349 | 0.348 | 0.361 | 0.35 | 1.05 | 0.903 | 0.854 | 0.787
SW 1573 | – | – | – | – | – | 0.463 | 0.41 | 0.397 | 0.38 | 0.0522 | 0.471 | 0.424 | 0.34 | 0.137 | 0.817 | 0.755 | 0.84 | 0.368
NCI-H661 | – | – | – | – | – | 0.4 | 0.407 | 0.44 | 0.443 | 0.421 | 0.568 | 0.538 | 0.534 | 0.254 | 0.978 | 1.22 | 1.16 | 1.04
PC-3 [JPC-3] | 0.899 | 0.808 | 0.817 | 0.778 | 0.71 | 0.572 | 0.566 | 0.528 | 0.577 | 0.565 | 0.802 | 0.815 | 0.726 | 0.756 | 1.09 | 0.99 | 0.962 | 0.95
Calu-6 | – | – | – | – | – | – | – | – | – | – | – | – | – | – | 0.928 | 0.855 | 0.677 | 0.141
LC-2-ad | 0.894 | 0.802 | 0.829 | 0.847 | 0.796 | 0.573 | 0.493 | 0.499 | 0.493 | 0.528 | 0.789 | 0.765 | 0.838 | 0.737 | 0.465 | 0.467 | 0.499 | 0.234
CAL-12T | 0.621 | 0.6 | 0.61 | 0.635 | 0.601 | 0.471 | 0.352 | 0.415 | 0.481 | 0.351 | – | – | – | – | 0.562 | 0.537 | 0.201 | 0.16
RERF-LC-KJ | 0.945 | 0.949 | 0.924 | 1.03 | 0.552 | 1.31 | 1.13 | 1.11 | 1.06 | 1.01 | 0.738 | 0.701 | 0.452 | 0.229 | 0.802 | 0.738 | 0.963 | 0.806
NCI-H1650 | – | – | – | – | – | 0.369 | 0.302 | 0.301 | 0.328 | 0.308 | 0.401 | 0.388 | 0.431 | 0.204 | 1.26 | 0.956 | 0.576 | 0.169
BEN | 0.694 | 0.749 | 0.729 | 0.77 | 0.557 | 0.499 | 0.426 | 0.489 | 0.458 | 0.448 | 0.754 | 0.663 | 0.771 | 0.744 | 0.897 | 0.754 | 0.985 | 0.83
EMC-BAC-2 | 1.04 | 1.1 | 1.09 | 1.14 | 0.995 | 0.528 | 0.541 | 0.509 | 0.519 | 0.537 | 0.93 | 0.924 | 0.935 | 0.692 | 0.766 | 0.744 | 0.746 | 0.881
